One series has as its system critically ill rabbits. Description: Proof-of-concept outcome study, interim analysis (15 animals per group).
The next series relates to C57BL/6 mice. Description: Aging mice with spermidine in drinking water. It counts as in vivo. The text has this:
Male and female C57BL/6 mice were purchased from the Institut für Labortierkunde und-genetik, Himberg, Austria. All animals were used at an age between 12 and 16 weeks. All mice were kept and treated according to institutional guidelines and Austrian law and the experiments were approved by the responsible governmental commission. For each group, one male and two female mice were housed singly and fed ad libitum with regular food (pellets) and spermidine was supplemented to drinking water in concentrations of 0.3 and 3 mM for 200 days. Controls were given pure drinking water. Drinking water was replaced every 2-3 days and spermidine freshly added from 1 M aqueous stock (spermidine/HCl pH 7.4), which was kept at −20° C. for no longer than one month. […] At the end of the experiment, the animals were anesthetized by ether inhalation, and exsanguinated by heart puncture. Peripheral blood was allowed to clot for 20 min, and serum was obtained by centrifugation at 200 g for 10 min. The spleens and livers (shock frozen in liquid nitrogen and stored at −80° C. upon further use) were immediately excised. Serum was used for determination of free thiol groups by Ellmans' reaction (Ellman (1959) Arch Biochem Biophys 82, 70-77 and Riener et al. (2002) Anal Bioanal Chem 373, 266-276 (2002).) as described previously (Schraml et al. (2007) Exp Gerontol 42, 1072-1078).
Extraction of polyamines from mice liver tissue was performed according to the freeze/thaw-method described by (Minocha et al. (1994)J Plant Growth Regul 13, 187-193) with slight modifications. […]
Polyamines were determined according to the method described previously by Gianotti et al. (V. Gianotti et al. (2008) J Chromatogr A 1185, 296-300.). […]
Polyamines were detected in MRM mode using following transitions: spermidine (m/z 146->72, CE 34 eV), putrescine (m/z 89->72, CE 28 eV), bis(hexamethylene)-triamine as internal standard (m/z 216->100, CE 36 eV). […]

For series [1], the system named is wild type yeast (BY4741) and null mutants. The series can be described thus: Yeast chronological aging, survival plating (clonogenicity). The class given is cell-based. Conditions: for Pro-survival effect of spermidine application (compared to WT): 4 mM; for increase of survival: day 20, 4 mM spermidine. As to the method: Experiments were carried out in BY4741 (MATa his3Δ1 leu2Δ0 met15Δ0 ura3Δ0) and respective null mutants, obtained from Euroscarf. The double mutant Δiki3Δsas3 was generated according to Gueldener at al. (2002) Nucleic Acids Res. 30, e23 by using gene-specific URA3-knockout cassette, amplified by PCR with pUG72 as template (Lovaas & Carlin (1991) Free Radic Biol Med 11, 455-46.). […] All spe1 double mutant strains were obtained through mating and sporulation of BY4741 Δspe1 with the respective BY4742 ([…]) single mutant strains. Single and double mutant strains were verified for correct gene deletion by PCR and further checked for consistent auxotrophies. […] Strains were grown at 28° C. on SC medium containing 0.17% yeast nitrogen base (Difco), 0.5% (NH4)2SO4 and 30 mg/l of all amino acids (except 80 mg/l histidine and 200 mg/l leucine), 30 mg/l adenine, and 320 mg/l uracil with 2% glucose (SCD). […] To construct NHP6A-EGFP in pUG35-Ura (giving rise to a C-terminally tagged chimeric fusion protein under control of the met25-Promotor) the insert was amplified by PCR using genomic DNA from BY4741 as template and cloned into pUG35 using the EcoRI restriction site. The EGFP-ATG8 construct in pUG36-Ura (N-terminally tagged fusion protein) was similarly generated, using EcoRI and ClaI restriction sites.
In case of experiments with Δspe1 (FIG. 24 A-E), all strains were inoculated to 5·10^4 cells/ml. […] Therefore, for calculation of survival rates in experiments using Δiki3Δsas3, cell numbers of each sample were determined after two pulse of sonication on ice with Sonifier 250 from Benson (Duty Cycle: 35; Output Control: 2.5). Tests for apoptotic (TUNEL and Annexin V staining) and necrotic (PI staining) markers as well as markers for oxidative stress (DHE staining) were performed as described in Dod et al. (1982) Eur J Biochem 121, 401-405). For quantifications using flow cytometry (BD FACSAria), 30,000 cells were evaluated and analyzed with BD FACSDiva software. Spermidine (S4139, Sigma, Austria) and putrescine (P5780, Sigma, Austria; 1 mM final concentration) were added to stationary cultures at day 1 of the aging experiments (24 h after inoculation). 1 M aqueous stock solution of spermidine was stored in one use aliquots at −20° C. for no longer than 1 month. For adjustment of extracellular pH (pHex) to 6 (±0.5), the required amount of sodium hydroxide was added 30 h after inoculation. The pHex was maintained at approximately 6 (±0.5) throughout the aging.

Entries after “also recorded” stand apart in the source; their conditions may differ.

Protocol for critically ill rabbits: Based on the pilot study, two doses of spermidine (30 and 100 mg/day) were selected to continue with.
An a priori planned interim analysis was performed after having included 15 animals per group, for selecting 1 spermidine-group to be completed next to the saline-group until 58 animals per group are included. After the interim analysis, the codes of the vials were changed, so that the proceeding of the study was again carried out blinded.
Based on the pilot study, two doses of spermidine are selected (30 and 100 mg/day) to continue with.
An interim analysis was performed after having included 15 animals per group, for selecting 1 spermidine-group that will be completed next to the saline-group until 58 animals per group are included. After the interim analysis, the codes of the vials are changed, so that the proceeding of the study is again carried out blinded.

Turning to `NCCCCNCCCN` [spermidine], the mortality result in the series with critically ill rabbits (7 days after injury, 30 and 100 mg/day, both doses equal, placebo >50%) is reported as “about one third; also recorded: much lower”. Besides, the “rise in renal p62 levels (autophagic flux marker)” value in the series with critically ill rabbits (kidney, compared to saline-treated animals) was “attenuated”. Moreover, the plasma spermidine concentration result in the series on critically ill rabbits (spermidine 30 mg/d or 100 mg/d) is reported as “maintain or increase the plasma spermidine concentration to similar (supra)physiological levels”. For the same compound, the “number of animals that developed a more than 3-fold rise in normal urea levels” value with critically ill rabbits (spermidine-treated animals, saline 18.8%, P 0.0461) is 2.8%. Also, the “number of animals that developed a more than 3-fold rise in normal creatinine levels” value with critically ill rabbits (spermidine-treated animals, saline 25%, P 0.0161) was determined as 2.8%. Besides, the “increase of serum level of free thiol groups” value in the series with C57BL/6 mice (3 mM spermidine in drinking water for 200 days) is recorded as roughly 30%. In addition, the “food and body weight” value with C57BL/6 mice (0.3 and 3 mM in drinking water, 200 days (data not shown)) was “remained unaffected”. Further, in the series with C57BL/6 mice (spermidine in drinking water, 200 days), the “intracellular spermidine levels in liver cells” value is listed as “significantly increased”. Further, in series [1], the “chronological life span of polyamine depleted cells” value is “restored”. The “Pro-survival effect of spermidine application (compared to WT)” value was “increased during” in series [1] (deletions image P00002, HDA2, increased in early aging (fast death of controls), BUT diminished or absent day 15 to 25); “not affected” in series [1] (single deletion of HDA1); “not affected” in series [1] (single deletions image P00004, RXT2, SDS3, SAP30); “not affected” in series [1] (single deletions image P00005, HDA3, HOS1, HOS2, HOS3, HOS4, RPD3, PHO23, SIR2, HST1, HST2, SET3, SIF2); “reduced” in series [1] (single deletions shown as image P00001, survival increased during early aging); “slightly reduced” in series [1] (single deletions shown as image P00003, during early aging (day 5 to 15)). In series [1] (BY4741 wild type, spermidine supplied at day 1 (4 mM)), the “increase in yeast life span” value is given as “up to 4 times”. In series [1] (deletion of SIR2), the “ability of spermidine to extend the chronological life span” value is given as “did not abrogate”. Besides, the “longevity upon spermidine application” value in series [1] (single deletion of HST1, HST2, HST3, HST4) is “did not affect longevity”. Further, the results for the increase of survival in series [1] (wild type cells) and in series [1] (Δiki3Δsas3 cells) were 5 fold and 1.3 fold, respectively. In series [1] (Δiki3 and Δsas3 strains), the “anti-aging (pro-survival) effect of spermidine” value is given as “partially abrogated”. Also, in series [1] (Δsod2 mutant cells, 4 mM spermidine), the “ROS accumulation and survival during aging” value is “temporarily protects from excessive ROS accumulation and loss of survival”.

Values taken from patent publication US20120015901A1, “METHODS AND PREPARATIONS FOR PROTECTING CRITICALLY ILL PATIENTS” (priority 2009, published 2012).
